In experiment [1] the target is ErbB2 insYVMA (HER2-YVMA, SEQ ID NO: 2) (Homo sapiens, UniProt P04626, INS775YVMA/P1170A). Put plainly: biochemical. To be noted: ErbB2 insYVMA enzyme assay; read-out: Assay 1 IC50.
Experiment [2] concerns the target ErbB2 with Exon 20 YVMA insertion (HER2-YVMA) (Homo sapiens (Human), UniProt P04626, INS775YVMA). The experiment in a line: Cellular phosphorylation assay, constitutive ErbB2 phosphorylation (Y1196) in engineered NIH 3T3 cells, Assay 4. Format: cell-based. In short, it runs like this: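 In-cell Western in NIH 3T3 cells carrying ErbB2 exon 20 YVMA insertion, with no ligand stimulation. One hour compound exposure at 37 °C before fixation and anti-pY1196 plus GAPDH staining with dual-wavelength fluorescence. IC50 derived after GAPDH normalization.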

A further experiment has as its target ErbB2 WT (Homo sapiens (Human), UniProt P04626). The experiment in a line: ErbB enzyme assay (CisBio HTRF KinEASE-TK), Assay 2. Format: biochemical. The procedure, abridged:
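Readout is HTRF KinEASE-TK, using Sa-XL665 and cryptate antibody for 1 h at 22 °C, as percent of control between DMSO-only (100) and pre-quenched (0) reactions. The kinase reaction runs 30 min at 22 °C with 1 mM ATP and 250 nM biotinylated TK substrate, in HEPES pH 7.4 with MgCl2 and 2% DMSO.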
Background: In TR-FRET formats the signal depends on donor and acceptor labels being close together.

Another experiment concerns the target EGFR wild type (EGFR WT) (Homo sapiens (Human), UniProt P00533). The experiment in a line: Cellular phosphorylation assay, EGF-stimulated EGFR phosphorylation in engineered NIH 3T3 cells, Phospho-EGFR DuoSet IC ELISA, Assay 5. Format: cell-based. The procedure, abridged: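 Phospho-EGFR ELISA on lysates of engineered NIH 3T3 EGFR WT cells, IC50 derived from concentration curves. Cells plated at 20,000/well overnight, given compound dilutions 1 h at 37 °C, then rEGF 100 ng/ml for a further 10 min before lysis.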
(An ELISA detects its analyte on a solid surface through an enzyme-linked reagent.)

For another experiment, the target named is EGFR (Homo sapiens (Human), UniProt P00533). Put plainly: ErbB enzyme assay (CisBio HTRF KinEASE-TK), Assay 3. Format: biochemical. The procedure, abridged: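 IC50 was taken where a 4-parameter logistic fit crossed 50 percent of control (DMSO 100, pre-quenched 0), read by ratiometric HTRF. Reactions ran 30 min at 22 °C with 1 mM ATP and 250 nM TK-substrate biotin in pH 7.4 HEPES buffer with MgCl2, Triton X-100 and 2% DMSO.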
Chain of EGFR (P00533 25-1210): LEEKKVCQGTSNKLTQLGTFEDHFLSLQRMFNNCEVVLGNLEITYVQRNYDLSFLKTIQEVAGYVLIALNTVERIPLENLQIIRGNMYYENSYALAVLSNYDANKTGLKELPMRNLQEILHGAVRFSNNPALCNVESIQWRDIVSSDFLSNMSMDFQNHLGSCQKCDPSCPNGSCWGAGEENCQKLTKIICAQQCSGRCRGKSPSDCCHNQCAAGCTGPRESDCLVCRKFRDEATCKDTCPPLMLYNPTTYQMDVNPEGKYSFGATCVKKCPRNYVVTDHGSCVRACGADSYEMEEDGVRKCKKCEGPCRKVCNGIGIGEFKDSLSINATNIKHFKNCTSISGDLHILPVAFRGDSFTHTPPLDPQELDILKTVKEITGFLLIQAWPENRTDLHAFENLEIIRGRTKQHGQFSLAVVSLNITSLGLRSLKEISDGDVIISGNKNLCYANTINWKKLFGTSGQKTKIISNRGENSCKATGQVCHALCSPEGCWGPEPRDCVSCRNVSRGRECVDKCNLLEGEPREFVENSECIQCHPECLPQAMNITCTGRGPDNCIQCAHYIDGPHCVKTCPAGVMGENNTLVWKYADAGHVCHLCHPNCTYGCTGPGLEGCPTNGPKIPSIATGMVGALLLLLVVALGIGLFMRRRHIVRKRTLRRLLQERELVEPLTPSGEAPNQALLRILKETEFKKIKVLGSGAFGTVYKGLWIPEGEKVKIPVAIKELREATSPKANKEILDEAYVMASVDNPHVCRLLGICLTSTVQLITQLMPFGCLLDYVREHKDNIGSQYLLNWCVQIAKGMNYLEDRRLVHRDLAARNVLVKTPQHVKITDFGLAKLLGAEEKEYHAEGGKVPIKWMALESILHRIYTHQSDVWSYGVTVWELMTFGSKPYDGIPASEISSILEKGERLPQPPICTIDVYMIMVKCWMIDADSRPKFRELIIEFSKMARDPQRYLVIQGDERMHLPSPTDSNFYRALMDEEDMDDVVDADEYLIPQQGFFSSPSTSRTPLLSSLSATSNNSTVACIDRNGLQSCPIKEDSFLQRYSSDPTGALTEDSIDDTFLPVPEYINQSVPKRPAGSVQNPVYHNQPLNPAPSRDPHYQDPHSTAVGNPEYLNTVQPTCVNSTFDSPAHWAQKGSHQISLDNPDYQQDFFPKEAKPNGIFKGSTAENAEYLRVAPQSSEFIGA

In general, IC50 refers to the concentration needed to halve the response being measured.

Chain of ErbB2 WT (P04626 23-1255): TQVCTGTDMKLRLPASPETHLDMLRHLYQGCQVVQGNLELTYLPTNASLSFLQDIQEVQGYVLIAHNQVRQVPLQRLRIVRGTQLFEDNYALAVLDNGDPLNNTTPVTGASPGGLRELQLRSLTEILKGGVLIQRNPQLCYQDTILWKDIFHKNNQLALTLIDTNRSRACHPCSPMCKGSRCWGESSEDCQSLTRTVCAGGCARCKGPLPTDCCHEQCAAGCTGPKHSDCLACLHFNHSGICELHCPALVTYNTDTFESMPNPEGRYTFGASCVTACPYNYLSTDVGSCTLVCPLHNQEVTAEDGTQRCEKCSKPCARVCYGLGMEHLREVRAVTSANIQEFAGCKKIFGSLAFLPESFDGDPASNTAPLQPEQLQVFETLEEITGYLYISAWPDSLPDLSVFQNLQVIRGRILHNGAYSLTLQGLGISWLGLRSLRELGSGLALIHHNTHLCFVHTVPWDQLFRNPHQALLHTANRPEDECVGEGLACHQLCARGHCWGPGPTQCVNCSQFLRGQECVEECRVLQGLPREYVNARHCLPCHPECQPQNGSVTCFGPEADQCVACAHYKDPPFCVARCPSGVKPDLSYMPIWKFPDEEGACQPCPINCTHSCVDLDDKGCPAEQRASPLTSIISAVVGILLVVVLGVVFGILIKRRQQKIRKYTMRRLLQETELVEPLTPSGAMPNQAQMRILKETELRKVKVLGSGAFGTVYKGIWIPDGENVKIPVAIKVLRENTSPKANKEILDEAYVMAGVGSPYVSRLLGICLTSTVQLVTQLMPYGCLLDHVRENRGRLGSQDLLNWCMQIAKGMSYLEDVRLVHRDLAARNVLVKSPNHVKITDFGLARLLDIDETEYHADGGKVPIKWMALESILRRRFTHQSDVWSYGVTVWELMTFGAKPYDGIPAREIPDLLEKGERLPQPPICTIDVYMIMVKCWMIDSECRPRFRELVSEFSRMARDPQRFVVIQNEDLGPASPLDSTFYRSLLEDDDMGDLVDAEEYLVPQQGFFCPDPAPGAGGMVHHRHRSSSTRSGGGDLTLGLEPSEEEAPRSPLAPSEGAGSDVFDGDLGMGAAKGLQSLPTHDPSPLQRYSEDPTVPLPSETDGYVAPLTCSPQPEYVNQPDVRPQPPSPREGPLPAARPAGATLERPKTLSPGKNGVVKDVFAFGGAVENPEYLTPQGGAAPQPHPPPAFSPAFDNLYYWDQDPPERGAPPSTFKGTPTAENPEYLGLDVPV
Chain of ErbB2 with Exon 20 YVMA insertion (HER2-YVMA) (P04626 other isoform, or with tags, fused parts or gaps ins YVMA behind 775): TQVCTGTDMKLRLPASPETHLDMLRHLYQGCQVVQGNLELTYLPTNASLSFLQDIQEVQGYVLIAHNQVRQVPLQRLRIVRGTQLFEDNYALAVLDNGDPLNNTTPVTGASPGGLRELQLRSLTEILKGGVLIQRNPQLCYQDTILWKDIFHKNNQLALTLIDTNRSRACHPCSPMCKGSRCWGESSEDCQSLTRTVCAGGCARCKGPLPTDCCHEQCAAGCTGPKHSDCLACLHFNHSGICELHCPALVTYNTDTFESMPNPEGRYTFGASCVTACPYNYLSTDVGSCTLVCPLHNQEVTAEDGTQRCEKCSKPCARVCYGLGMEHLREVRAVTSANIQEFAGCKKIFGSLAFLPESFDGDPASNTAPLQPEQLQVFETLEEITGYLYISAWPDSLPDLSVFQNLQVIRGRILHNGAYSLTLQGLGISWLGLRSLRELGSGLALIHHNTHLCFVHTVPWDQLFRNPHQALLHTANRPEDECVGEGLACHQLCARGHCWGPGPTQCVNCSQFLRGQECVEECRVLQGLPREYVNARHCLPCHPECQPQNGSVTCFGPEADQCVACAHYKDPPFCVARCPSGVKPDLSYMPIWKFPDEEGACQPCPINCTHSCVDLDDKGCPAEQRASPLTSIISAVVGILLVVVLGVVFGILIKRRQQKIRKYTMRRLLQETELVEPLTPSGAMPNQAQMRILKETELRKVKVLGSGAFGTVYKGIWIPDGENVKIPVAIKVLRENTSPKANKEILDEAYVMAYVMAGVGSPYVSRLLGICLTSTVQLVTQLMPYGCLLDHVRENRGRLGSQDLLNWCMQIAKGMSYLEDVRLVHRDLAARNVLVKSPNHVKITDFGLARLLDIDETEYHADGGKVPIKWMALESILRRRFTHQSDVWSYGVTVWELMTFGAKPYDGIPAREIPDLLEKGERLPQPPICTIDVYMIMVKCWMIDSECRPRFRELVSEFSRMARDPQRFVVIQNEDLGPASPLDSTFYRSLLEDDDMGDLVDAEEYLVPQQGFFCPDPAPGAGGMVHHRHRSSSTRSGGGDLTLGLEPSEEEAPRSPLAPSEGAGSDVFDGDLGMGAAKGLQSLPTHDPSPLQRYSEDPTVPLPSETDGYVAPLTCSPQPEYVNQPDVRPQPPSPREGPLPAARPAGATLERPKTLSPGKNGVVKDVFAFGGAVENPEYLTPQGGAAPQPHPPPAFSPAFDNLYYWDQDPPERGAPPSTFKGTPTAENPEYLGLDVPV
Chain of ErbB2 insYVMA (HER2-YVMA, SEQ ID NO: 2) (P04626 with tags, fused parts or gaps INS775YVMA/P1170A limits assumed): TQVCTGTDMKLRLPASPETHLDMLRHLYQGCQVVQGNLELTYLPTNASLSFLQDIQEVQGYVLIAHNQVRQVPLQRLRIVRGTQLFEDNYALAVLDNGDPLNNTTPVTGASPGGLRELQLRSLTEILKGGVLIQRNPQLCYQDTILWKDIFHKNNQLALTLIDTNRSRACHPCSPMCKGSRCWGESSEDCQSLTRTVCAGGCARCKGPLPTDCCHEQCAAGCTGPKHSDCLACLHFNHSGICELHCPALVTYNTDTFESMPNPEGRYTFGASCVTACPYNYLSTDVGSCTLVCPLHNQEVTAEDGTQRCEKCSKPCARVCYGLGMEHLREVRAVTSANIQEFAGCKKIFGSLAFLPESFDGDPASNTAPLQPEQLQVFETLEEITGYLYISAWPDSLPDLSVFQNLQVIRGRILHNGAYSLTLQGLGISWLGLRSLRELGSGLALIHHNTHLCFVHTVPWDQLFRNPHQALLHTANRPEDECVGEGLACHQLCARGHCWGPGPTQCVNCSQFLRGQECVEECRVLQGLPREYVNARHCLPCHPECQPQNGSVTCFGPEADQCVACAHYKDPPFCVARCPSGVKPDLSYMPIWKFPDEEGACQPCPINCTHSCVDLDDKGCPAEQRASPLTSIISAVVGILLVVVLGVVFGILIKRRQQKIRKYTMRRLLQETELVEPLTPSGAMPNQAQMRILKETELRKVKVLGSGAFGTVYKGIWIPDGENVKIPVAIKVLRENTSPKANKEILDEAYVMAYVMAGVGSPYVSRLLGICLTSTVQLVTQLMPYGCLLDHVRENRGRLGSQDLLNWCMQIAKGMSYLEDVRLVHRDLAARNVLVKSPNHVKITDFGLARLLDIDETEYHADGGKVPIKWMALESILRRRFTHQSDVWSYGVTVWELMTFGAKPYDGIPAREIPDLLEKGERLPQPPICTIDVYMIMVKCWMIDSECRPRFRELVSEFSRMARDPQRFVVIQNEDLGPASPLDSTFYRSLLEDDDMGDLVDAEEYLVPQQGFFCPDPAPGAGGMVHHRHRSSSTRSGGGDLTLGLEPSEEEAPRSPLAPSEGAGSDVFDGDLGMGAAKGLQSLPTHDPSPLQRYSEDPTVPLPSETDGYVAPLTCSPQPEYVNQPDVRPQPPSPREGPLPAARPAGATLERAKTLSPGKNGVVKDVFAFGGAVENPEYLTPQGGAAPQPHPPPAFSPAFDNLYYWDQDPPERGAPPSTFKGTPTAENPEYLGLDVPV

Consider `Clc1cc(Nc2ncnc3cnc(N4C[C@@H]5[C@H](C4)[C@H]4CC[C@@H]5O4)nc23)ccc1Oc1ccn2ncnc2c1` [Example 351], for which the IC50 is 0.0308 µM in experiment [1]; 0.15 µM in experiment [2]; 0.0584 µM against ErbB2 WT; at least 5 µM at EGFR wild type (EGFR WT); at least 10 µM on EGFR.

As to `Cc1cc(Nc2ncnc3cnc(N4CCN[C@H](C)C4)nc23)ccc1Oc1ccn2ncnc2c1` [Example 352], the IC50 in experiment [1] is 0.0375 µM; in experiment [2], 0.147 µM; against ErbB2 WT it was 0.131 µM; at EGFR wild type (EGFR WT) it was at least 5 µM; against EGFR it was at least 10 µM.

Consider `Cc1cc(Nc2ncnc3cnc(N(C)C[C@@H]4COCCO4)nc23)ccc1Oc1ccc2c(c1)ncn2C` [Example 353], for which the IC50 in experiment [1] was 0.0482 µM; in experiment [2], 0.0181 µM; against ErbB2 WT, 0.0475 µM; against EGFR wild type (EGFR WT), at least 5 µM; against EGFR, at least 10 µM.

With `FC(F)O[C@@H]1CCN(c2ncc3ncnc(Nc4ccc(Oc5ccn6ncnc6c5)c(Cl)c4)c3n2)C1` [Example 354], the IC50 is 0.0276 µM in experiment [1]; 0.0722 µM in experiment [2]; 0.029 µM against ErbB2 WT; at least 5 µM on EGFR wild type (EGFR WT); at least 10 µM against EGFR.

In the case of `Cc1cc(Nc2ncnc3cnc(N4CCN[C@H](C(F)(F)F)C4)nc23)ccc1Oc1ccn2ncnc2c1` [Example 355], the IC50 in experiment [1] is 0.0193 µM; in experiment [2] it was 0.182 µM; against ErbB2 WT, 0.0245 µM; on EGFR wild type (EGFR WT), at least 5 µM; against EGFR it was 5.04 µM.

Consider `Clc1cc(Nc2ncnc3cnc(N4CC[C@@]5(CCOC5)C4)nc23)ccc1Oc1ccn2ncnc2c1` [Example 356], for which the IC50 is 0.0361 µM in experiment [1]; 0.27 µM in experiment [2]; 0.0928 µM against ErbB2 WT; at least 5 µM against EGFR wild type (EGFR WT); at least 10 µM on EGFR.

Turning to `Cc1cc(Nc2ncnc3cnc(N4CC[C@H](C(F)F)C4)nc23)ccc1Oc1ccn2ncnc2c1` [Example 359], the IC50 is 0.0117 µM in experiment [1]; 0.278 µM in experiment [2]; 0.0327 µM at ErbB2 WT; at least 5 µM at EGFR wild type (EGFR WT); at least 10 µM against EGFR.

`Cc1cc(Nc2ncnc3cnc(N4CC[C@H](OC(F)F)C4)nc23)ccc1Oc1ccn2ncnc2c1` [Example 361]: the IC50 in experiment [1] is 0.0264 µM; in experiment [2], 0.312 µM; on ErbB2 WT it was 0.0392 µM; at EGFR wild type (EGFR WT) it was at least 5 µM; against EGFR, 7.48 µM.

As for `Cc1cc(Nc2ncnc3cnc(NC4=NC(C)(C)CO4)nc23)ccc1Oc1ccn2ncnc2c1` [Example 362], the half-inhibitory concentration (IC50) was 0.0263 µM in experiment [1]; 1.26 µM in experiment [2]; 0.0321 µM against ErbB2 WT; at least 5 µM against EGFR wild type (EGFR WT); 3.39 µM on EGFR.

Take `Cc1cc(Nc2ncnc3cnc(N4C[C@@H]5[C@H](C4)[C@@H]4CC[C@H]5O4)nc23)ccc1Oc1ccc2c(c1)ncn2C` [Example 363]: the IC50 in experiment [1] was 0.0261 µM; in experiment [2] it was 0.0262 µM; against ErbB2 WT, 0.0724 µM; against EGFR wild type (EGFR WT), at least 5 µM; against EGFR it was at least 10 µM.

As for `Cc1cc(Nc2ncnc3cnc(N(C)CC(C)(C)CO)nc23)ccc1Oc1ccc2c(c1)ncn2C` [Example 364], the half-maximal inhibitory concentration (IC50) in experiment [1] is 0.0328 µM; in experiment [2], 0.0257 µM; on ErbB2 WT, 0.0295 µM; on EGFR wild type (EGFR WT), at least 5 µM; at EGFR, 2.68 µM.

For `Cc1cc(Nc2ncnc3cnc(N4CC[C@](C)(O)C4)nc23)ccc1Oc1ccn2ncnc2c1` [Example 365], the IC50 in experiment [1] is 0.0384 µM; in experiment [2], 0.132 µM; against ErbB2 WT it was 0.0818 µM; against EGFR wild type (EGFR WT) it was at least 5 µM; at EGFR, 7.57 µM.

For `Cc1cc(Nc2ncnc3cnc(N(C)[C@H]4C[C@H](O)C4)nc23)ccc1Oc1ccn2ncnc2c1` [Example 366], the concentration for half-maximal inhibition (IC50) in experiment [1] was 0.0083 µM; in experiment [2] it was 0.0766 µM; on ErbB2 WT, 0.0067 µM; at EGFR wild type (EGFR WT), at least 5 µM; on EGFR, 0.303 µM.

`N#C[C@H]1CCN(c2ncc3ncnc(Nc4ccc(Oc5ccn6ncnc6c5)c(Cl)c4)c3n2)C1` [Example 367]: the IC50 in experiment [1] is 0.0165 µM; in experiment [2], 0.264 µM; on ErbB2 WT it was 0.0647 µM; at EGFR wild type (EGFR WT), at least 5 µM; against EGFR it was at least 10 µM.

With `CN(c1ncc2ncnc(Nc3ccc(Oc4ccn5ncnc5c4)c(Cl)c3)c2n1)[C@@H]1CCCOC1` [Example 368], the IC50 was 0.0036 µM in experiment [1]; 0.0174 µM in experiment [2]; 0.0048 µM against ErbB2 WT; at least 5 µM at EGFR wild type (EGFR WT); 0.303 µM against EGFR.

As for `Cc1cc(Nc2ncnc3cnc(N4CCC45COC5)nc23)ccc1Oc1ccn2ncnc2c1` [Example 369], the IC50 in experiment [1] is 0.0073 µM; in experiment [2], 0.151 µM; against ErbB2 WT, 0.0371 µM; on EGFR wild type (EGFR WT) it was at least 5 µM; at EGFR, 3.87 µM.

`Cc1cc(Nc2ncnc3cnc(N4CC[C@H]4C(C)(C)O)nc23)ccc1Oc1ccn2ncnc2c1` [Example 370]: the 50% inhibitory concentration (IC50) was 0.0579 µM in experiment [1]; 2.5 µM in experiment [2]; 0.129 µM at ErbB2 WT; at least 5 µM against EGFR wild type (EGFR WT); at least 10 µM against EGFR.

For `Cc1cc(Nc2ncnc3cnc(N4CCC[C@@H]4C(C)(C)O)nc23)ccc1Oc1ccc2c(c1)ncn2C` [Example 371], the half-inhibitory concentration (IC50) in experiment [1] is 0.067 µM; in experiment [2], 0.127 µM; at ErbB2 WT it was 0.492 µM; at EGFR wild type (EGFR WT), at least 5 µM; against EGFR, at least 10 µM.

Regarding `Cc1cc(Nc2ncnc3cnc(N(C)CC(F)F)nc23)ccc1Oc1ccn2ncnc2c1` [Example 372], the IC50 is 0.0151 µM in experiment [1]; 0.153 µM in experiment [2]; 0.0707 µM against ErbB2 WT; at least 5 µM at EGFR wild type (EGFR WT); 7.31 µM on EGFR.

In the case of `Cc1cc(Nc2ncnc3cnc(N4CC5(CCOC5)C4)nc23)ccc1Oc1ccn2ncnc2c1` [Example 373], the IC50 in experiment [1] is 0.0816 µM; in experiment [2], 2.48 µM; against ErbB2 WT it was 0.307 µM; at EGFR wild type (EGFR WT), at least 5 µM; against EGFR, at least 10 µM.

In the case of `Cc1cc(Nc2ncnc3cnc(N4CC[C@]45CCOC5)nc23)ccc1Oc1ccn2ncnc2c1` [Example 374], the IC50 in experiment [1] is 0.0143 µM; in experiment [2], 0.216 µM; at ErbB2 WT, 0.0142 µM; against EGFR wild type (EGFR WT), at least 5 µM; against EGFR it was 1.18 µM.

As for `Cc1cc(Nc2ncnc3cnc(N4CC[C@]5(CCO5)C4)nc23)ccc1Oc1ccc2c(c1)ncn2C` [Example 375], the IC50 in experiment [1] was 0.0228 µM; in experiment [2], 0.0149 µM; against ErbB2 WT it was 0.034 µM; against EGFR wild type (EGFR WT) it was at least 5 µM; on EGFR it was at least 10 µM.

For the molecule `Clc1cc(Nc2ncnc3cnc(N4CC[C@@H]5COC[C@H]54)nc23)ccc1Oc1ccn2ncnc2c1` [Example 376], the IC50 is 0.0133 µM in experiment [1]; 0.0308 µM in experiment [2]; 0.0117 µM against ErbB2 WT; at least 5 µM against EGFR wild type (EGFR WT); 1.2 µM against EGFR.

On to `Clc1cc(Nc2ncnc3cnc(N4CCC5COCC54)nc23)ccc1Oc1ccn2ncnc2c1` (stereo not shown) [Example 377], for which the IC50 in experiment [1] was 0.0076 µM; in experiment [2], 0.0582 µM; against ErbB2 WT, 0.0147 µM; against EGFR wild type (EGFR WT), at least 5 µM; against EGFR it was 1.41 µM.

For the molecule `Cc1cc(Nc2ncnc3cnc(N4CCC4)nc23)ccc1Oc1ccn2ncnc2c1` [Example 379], the IC50 was 0.0257 µM in experiment [1]; 0.356 µM in experiment [2]; 0.0821 µM against ErbB2 WT; at least 5 µM on EGFR wild type (EGFR WT); at least 10 µM on EGFR.

As to `Cc1cc(Nc2ncnc3cnc(N4C[C@@H]5[C@H](C4)[C@H]4CC[C@@H]5O4)nc23)ccc1Oc1ccc2c(c1)ncn2C` [Example 380], the IC50 was 0.0464 µM in experiment [1]; 0.0432 µM in experiment [2]; 0.064 µM against ErbB2 WT; at least 5 µM on EGFR wild type (EGFR WT); at least 10 µM against EGFR.

For `Cc1cc(Nc2ncnc3cnc(N(C)[C@H]4CCOC4)nc23)ccc1Oc1ccn2ncnc2c1` [Example 381], the IC50 in experiment [1] is 0.0154 µM; in experiment [2], 0.265 µM; on ErbB2 WT, 0.0094 µM; against EGFR wild type (EGFR WT), at least 5 µM; at EGFR, 5.04 µM.

Turning to `Cc1cc(Nc2ncnc3cnc(N4CCOC5CC54)nc23)ccc1Oc1ccn2ncnc2c1` (stereo not shown) [Example 382], the IC50 in experiment [1] was 0.0345 µM; in experiment [2] it was 0.397 µM; against ErbB2 WT, 0.0689 µM; against EGFR wild type (EGFR WT), at least 5 µM; at EGFR, 6.01 µM.

`Clc1cc(Nc2ncnc3cnc(N4CC5CCC(C4)O5)nc23)ccc1Oc1ccn2ncnc2c1` [Example 383]: the IC50 in experiment [1] was 0.0563 µM; in experiment [2] it was 4.14 µM; at ErbB2 WT, 0.0753 µM; on EGFR wild type (EGFR WT) it was at least 5 µM; against EGFR it was at least 10 µM.

These data come from patent US11834453B2, “Substituted pyrimido[5,4-d]pyrimidines as HER2 inhibitors” (Array BioPharma Inc., priority 2020, dated 2023).
